Assay results: US8153808B2, “Dihydropyridone amides as P2X7 modulators” (Roche Palo Alto LLC, priority 2008, dated 2012)

Target: T1, P2X7 (UniProt Q99572)
T1 sequence (Q99572 1-595): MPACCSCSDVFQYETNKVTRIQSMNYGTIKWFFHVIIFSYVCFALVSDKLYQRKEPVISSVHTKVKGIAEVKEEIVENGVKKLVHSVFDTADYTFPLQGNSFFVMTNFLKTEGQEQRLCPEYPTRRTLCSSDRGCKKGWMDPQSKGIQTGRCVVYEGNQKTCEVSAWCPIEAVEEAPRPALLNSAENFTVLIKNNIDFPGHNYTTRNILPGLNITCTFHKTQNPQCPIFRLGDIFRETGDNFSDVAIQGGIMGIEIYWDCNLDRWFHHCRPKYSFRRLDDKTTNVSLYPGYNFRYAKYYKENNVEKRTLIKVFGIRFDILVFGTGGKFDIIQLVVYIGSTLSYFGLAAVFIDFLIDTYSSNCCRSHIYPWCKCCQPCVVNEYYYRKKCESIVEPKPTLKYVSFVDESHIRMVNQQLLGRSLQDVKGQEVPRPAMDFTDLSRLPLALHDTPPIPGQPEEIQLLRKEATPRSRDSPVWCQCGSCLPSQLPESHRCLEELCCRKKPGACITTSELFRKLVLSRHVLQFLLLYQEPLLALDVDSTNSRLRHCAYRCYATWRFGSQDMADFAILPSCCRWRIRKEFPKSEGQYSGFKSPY
Test: pIC50 values for P2X7 (Table 1)
Type: cell-based
Procedure: Intracellular Calcium Flux (FLIPR) Assay
Stock solutions of compounds were prepared from powders as a 10 mM DMSO stock solution. These solutions were stored at RT during the two week period of these experiments to prevent freeze-thaw of the DMSO stocks. The DMSO stocks were added to the appropriate assay buffer at a concentration of 10 μM, and then diluted serially to the final concentrations that were tested. […] The aqueous solutions of compounds as well as ATP (Sigma A7699) and BzATP (Sigma B6396) were prepared fresh for each day of experiment.
1321N1 cells stably expressing the full length human P2X7 gene (1321N1-hP2X7) and HEK293 cells stably expressing the full length rat P2X7 gene (HEK293-rP2X7) were obtained from the Roche Cell Culture Facility. 1321N1-hP2X7 cells were grown in Dulbecco's Modified Eagle's Medium (DMEM) high glucose supplemented with 10% FBS and 250 μg/mL G418. HEK293-rP2X7 cells were grown in DMEM/F-12 supplemented with 10% FBS, 1 mM CaCl2, 2 mM MgCl2, 2 mM L-Glutamine and 500 μg/ml G418. Cells were split such that they never became >70% confluent.
On the day prior to the experiment, 1321N1-hP2X7 or HEK293-rP2X7 cells were released into suspension with calcium-free PBS+Versene and washed by centrifugation with calcium-free PBS to remove the Versene. Cells were resuspended in growth medium at a density of 2.5×10^5 cells/mL and seeded into black walled, clear bottom 96 well plates (50,000 cells/well) approximately 18 hr prior to intracellular calcium flux experiments.
On the day of the experiment, plates were washed with FLIPR buffer (calcium- and magnesium-free Hank's Balanced Salt Solution (HBSS) supplemented with 10 mM Hepes, 2.5 mM probenecid and 2 mM calcium chloride) using a BIO-TEK 96 channel plate washer and incubated with […] fluo-3 dye at 37° C. for one hr. The dye was then removed by plate washing and the cells were allowed to equilibrate for 20 min at room temperature with antagonist or vehicle (FLIPR buffer). Agonist (100 μM BzATP final concentration for hP2X7; 5 μM BzATP final concentration or rP2X7) was added online with the FLIPR and fluorescence measurements made at 1 sec intervals for 60 sec followed by 3 sec intervals for a further 4 min (5 min total). A final addition of 5 μM ionomycin was made and the maximal BzATP-evoked fluorescence normalized to the maximal ionomycin-evoked fluorescence.

First: COc1cc(I)c(CC(=O)N2C=CC(=O)CC2c2ccccc2)cc1OC (centres unmarked) [Compound 1, 1-[2-(2-Iodo-4,5-dimethoxy-phenyl)-acetyl]-2-phenyl-2,3-dihydro-1H-pyridin-4-one]
Second: COc1cc(I)c(CC(=O)N2C=CC(=O)C[C@H]2c2ccccc2)cc1OC [Compound 4, (S)-1-[2-(2-Iodo-4,5-dimethoxy-phenyl)-acetyl]-2-phenyl-2,3-dihydro-1H-pyridin-4-one]
The “pIC50 P2X7” value of the first is lower: 6.984 for the first, 7.418 for the second.

Going from `COc1cc(I)c(CC(=O)N2C=CC(=O)CC2c2ccccc2C)cc1OC` (centres unmarked) [Compound 2, 1-[2-(2-Iodo-4,5-dimethoxy-phenyl)-acetyl]-2-o-tolyl-2,3-dihydro-1H-pyridin-4-one] to `COc1cc(I)c(CC(=O)N2C=CC(=O)C[C@@H]2c2ccccc2)cc1OC` [Compound 5, (R)-1-[2-(2-Iodo-4,5-dimethoxy-phenyl)-acetyl]-2-phenyl-2,3-dihydro-1H-pyridin-4-one], the “pIC50 P2X7” value falls from 5.963 to 5.425.

First: COc1cc(I)c(CC(=O)N2C=CC(=O)CC2c2ccc(F)cc2)cc1OC (centres unmarked) [Compound 6, 2-(4-Fluoro-phenyl)-1-[2-(2-iodo-4,5-dimethoxy-phenyl)-acetyl]-2,3-dihydro-1H-pyridin-4-one]
Second: COc1cc(Br)c(CC(=O)N2C=CC(=O)C[C@H]2c2ccc(F)cc2)cc1OC [Compound 19, (S)-1-[2-(2-Bromo-4,5-dimethoxy-phenyl)-acetyl]-2-(4-fluoro-phenyl)-2,3-dihydro-1H-pyridin-4-one]
The “pIC50 P2X7” value of the first is lower: 6.97 for the first, 7.6125 for the second.

First: COc1ccc(Br)c(CC(=O)N2C=CC(=O)CC2c2ccccc2)c1 (centres unmarked) [Compound 7, 1-[2-(2-Bromo-5-methoxy-phenyl)-acetyl]-2-phenyl-2,3-dihydro-1H-pyridin-4-one]
Second: COc1ccc(CC(=O)N2C=CC(=O)CC2c2ccccc2)c(Br)c1 (centres unmarked) [Compound 8, 1-[2-(2-Bromo-4-methoxy-phenyl)-acetyl]-2-phenyl-2,3-dihydro-1H-pyridin-4-one]
The “pIC50 P2X7” value of the first is higher: 6.765 for the first, 5.685 for the second.

First: COc1cc(Br)c(CC(=O)N2C=CC(=O)CC2C(C)C)cc1OC (centres unmarked) [Compound 9, 1-[2-(2-Bromo-4,5-dimethoxy-phenyl)-acetyl]-2-isopropyl-2,3-dihydro-1H-pyridin-4-one]
Second: COc1cc(Br)c(CC(=O)N2C=CC(=O)CC2C2CCCC2)cc1OC (centres unmarked) [Compound 27, 1-[2-(2-Bromo-4,5-dimethoxy-phenyl)-acetyl]-2-cyclopentyl-2,3-dihydro-1H-pyridin-4-one]
The “pIC50 P2X7” value of the first is lower: 5.45 for the first, 6.35 for the second.

`COc1cc(Br)c(CC(=O)N2C=CC(=O)CC2C2CCCCC2)cc1OC` (centres unmarked) [Compound 10, 1-[2-(2-Bromo-4,5-dimethoxy-phenyl)-acetyl]-2-cyclohexyl-2,3-dihydro-1H-pyridin-4-one] and `COc1cc(Br)c(CC(=O)N2C=CC(=O)C[C@H]2c2ccccc2)cc1OC` [Compound 13, (S)-1-[2-(2-Bromo-4,5-dimethoxy-phenyl)-acetyl]-2-phenyl-2,3-dihydro-1H-pyridin-4-one] are within 0.2 log units of each other in “pIC50 P2X7” value: 7.193 for the first, 7.22 for the second.

`COc1cc(Cl)c(CC(=O)N2C=CC(=O)CC2c2ccccc2)cc1OC` (centres unmarked) [Compound 11, 1-[2-(2-Chloro-4,5-dimethoxy-phenyl)-acetyl]-2-phenyl-2,3-dihydro-1H-pyridin-4-one] and `COc1cc(Cl)c(CC(=O)N2C=CC(=O)C[C@H]2c2ccccc2)cc1OC` [Compound 14, (S)-1-[2-(2-Chloro-4,5-dimethoxy-phenyl)-acetyl]-2-phenyl-2,3-dihydro-1H-pyridin-4-one] are within 0.2 log units of each other in “pIC50 P2X7” value: 6.806 for the first, 6.705 for the second.

`O=C1C=CN(C(=O)Cc2cc3c(cc2Br)OCCO3)C(c2ccccc2)C1` (centres unmarked) [Compound 12, 1-[2-(7-Bromo-2,3-dihydro-benzo[1,4]dioxin-6-yl)-acetyl]-2-phenyl-2,3-dihydro-1H-pyridin-4-one] and `COc1cc(CC(=O)N2C=CC(=O)CC2c2ccccc2)c(C(F)(F)F)cc1OC` (centres unmarked) [Compound 15, 1-[2-(4,5-Dimethoxy-2-trifluoromethyl-phenyl)-acetyl]-2-phenyl-2,3-dihydro-1H-pyridin-4-one] are within 0.2 log units of each other in “pIC50 P2X7” value: 5.305 for the first, 5.395 for the second.

Going from `CCOc1cc(CC(=O)N2C=CC(=O)C[C@H]2c2ccc(F)cc2)c(Br)cc1OC` [Compound 16, (S)-1-[2-(2-Bromo-5-ethoxy-4-methoxy-phenyl)-acetyl]-2-(4-fluoro-phenyl)-2,3-dihydro-1H-pyridin-4-one] to `CCOc1cc(Br)c(CC(=O)N2C=CC(=O)C[C@H]2c2ccc(F)cc2)cc1OC` [Compound 17, (S)-1-[2-(2-Bromo-4-ethoxy-5-methoxy-phenyl)-acetyl]-2-(4-fluoro-phenyl)-2,3-dihydro-1H-pyridin-4-one], the “pIC50 P2X7” value falls from 7.17 to 6.535.

Compared with `COc1cc(Br)c(CC(=O)N2C=CC(=O)C[C@H]2c2ccc(F)cc2)cc1OCC1CC1` [Compound 18, (S)-1-[2-(2-Bromo-5-cyclopropylmethoxy-4-methoxy-phenyl)-acetyl]-2-(4-fluoro-phenyl)-2,3-dihydro-1H-pyridin-4-one], `COc1cc(CC(=O)N2C=CC(=O)C[C@H]2c2ccc(F)cc2)c(Br)cc1OCC1CC1` [Compound 20, (S)-1-[2-(2-Bromo-4-cyclopropylmethoxy-5-methoxy-phenyl)-acetyl]-2-(4-fluoro-phenyl)-2,3-dihydro-1H-pyridin-4-one] is lower in “pIC50 P2X7” value: 6.93 for the first, 6.08 for the second.

Compared with `COc1cc(Br)c(CC(=O)N2C=CC(=O)CC2c2ccc(F)cc2)cc1OC` (centres unmarked) [Compound 22, 1-[2-(2-Bromo-4,5-dimethoxy-phenyl)-acetyl]-2-(4-fluoro-phenyl)-2,3-dihydro-1H-pyridin-4-one], `COc1cc(CC(=O)N2C=CC(=O)C[C@H]2c2ccc(F)cc2)c(Br)cc1C` [Compound 29, (S)-1-[2-(2-Bromo-5-methoxy-4-methyl-phenyl)-acetyl]-2-(4-fluoro-phenyl)-2,3-dihydro-1H-pyridin-4-one] is lower in “pIC50 P2X7” value: 7.165 for the first, 6.625 for the second.

Compared with `COc1cc(Br)c(CC(=O)N2C=CC(=O)C[C@H]2c2ccc(F)cc2)cc1OC(F)F` [Compound 24, (S)-1-[2-(2-Bromo-5-difluoromethoxy-4-methoxy-phenyl)-acetyl]-2-(4-fluoro-phenyl)-2,3-dihydro-1H-pyridin-4-one], `O=C1C=CN(C(=O)Cc2cc(OC(F)F)c(OC(F)F)cc2Br)[C@H](c2ccc(F)cc2)C1` [Compound 26, (S)-1-[2-(2-Bromo-4,5-bis-difluoromethoxy-phenyl)-acetyl]-2-(4-fluoro-phenyl)-2,3-dihydro-1H-pyridin-4-one] is lower in “pIC50 P2X7” value: 6.305 for the first, 5.895 for the second.

Compared with `COc1cc(Br)c(CC(=O)N2C=CC(=O)CC2c2cccc(Cl)c2)cc1OC` (centres unmarked) [Compound 25, 1-[2-(2-Bromo-4,5-dimethoxy-phenyl)-acetyl]-2-(3-chloro-phenyl)-2,3-dihydro-1H-pyridin-4-one], `COc1cccc(C2CC(=O)C=CN2C(=O)Cc2cc(OC)c(OC)cc2Br)c1` (centres unmarked) [Compound 28, 1-[2-(2-Bromo-4,5-dimethoxy-phenyl)-acetyl]-2-(3-methoxy-phenyl)-2,3-dihydro-1H-pyridin-4-one] is lower in “pIC50 P2X7” value: 6.28 for the first, 5.415 for the second.
